For orientation: IC50 means the concentration that gives 50% inhibition.

The target in the experiment is T1, recombinant full-length human prolyl endopeptidase (PREP) (Homo sapiens, UniProt P48147).
T1 construct: To recombinant full-length human prolyl endopeptidase (PREP, R&D-Systems, 4308-SE); purchased R&D-Systems 4308-SE
T1 sequence (P48147 1-710): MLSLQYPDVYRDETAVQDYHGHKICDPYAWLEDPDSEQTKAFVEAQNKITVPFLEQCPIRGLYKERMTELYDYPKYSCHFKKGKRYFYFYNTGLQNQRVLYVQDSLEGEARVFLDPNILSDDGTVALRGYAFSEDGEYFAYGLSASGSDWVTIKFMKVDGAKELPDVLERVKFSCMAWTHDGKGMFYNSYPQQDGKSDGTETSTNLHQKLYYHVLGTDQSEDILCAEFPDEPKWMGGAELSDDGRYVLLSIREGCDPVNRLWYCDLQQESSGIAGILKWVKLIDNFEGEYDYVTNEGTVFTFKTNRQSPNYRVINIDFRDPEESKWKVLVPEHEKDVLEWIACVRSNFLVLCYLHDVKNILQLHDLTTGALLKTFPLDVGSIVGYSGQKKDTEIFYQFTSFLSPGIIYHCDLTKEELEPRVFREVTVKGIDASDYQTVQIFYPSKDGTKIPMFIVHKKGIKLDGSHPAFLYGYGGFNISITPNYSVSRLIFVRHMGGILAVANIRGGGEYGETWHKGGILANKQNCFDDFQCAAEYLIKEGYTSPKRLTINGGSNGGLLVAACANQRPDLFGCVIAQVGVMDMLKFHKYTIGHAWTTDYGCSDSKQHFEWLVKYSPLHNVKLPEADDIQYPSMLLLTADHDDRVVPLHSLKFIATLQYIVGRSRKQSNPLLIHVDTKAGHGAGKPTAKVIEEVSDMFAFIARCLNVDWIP
Briefly: Biochemical human prolyl endopeptidase (PREP) assay with fluorescently labelled substrate. To be noted: substrate Z-Gly-Pro-AMC 50 μM, 32° C., 60 min; some as mean values from multiple independent determinations. Put shortly:
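Initial rates of fluorescence increase from 50 μM Z-Gly-Pro-AMC cleavage (ex 360/em 465 nm, 60 min, 32° C) give percent PREP activity versus no-compound control, and IC50 is interpolated. Enzyme used at 0.4 nM (final, example) in Tris pH 7.5 with EDTA, GSH, BSA and Brij-35; compounds span 1 nM to 30 μM.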
With `O=C(C1C(C(F)(F)F)CCc2nn(Cc3ccnc(C(F)(F)F)c3F)c(=O)n21)N1CC(F)C1` (single isomer, unassigned) [Example 303, (5RS,6RS)-5-[(3-Fluoroazetidin-1-yl)carbonyl]-2-{[3-fluoro-2-(trifluoromethyl)pyridin-4-yl]methyl}-6-(trifluoromethyl)-5,6,7,8-tetrahydro[1,2,4]triazolo[4,3-a]pyridin-3(2H)-one], the 50% inhibitory concentration (IC50) is 35 nM. The result for `O=C(C1C(C(F)(F)F)CCc2nn(Cc3ccc(C(F)(F)F)nc3)c(=O)n21)N1CC(F)C1` (single isomer, unassigned) [Example 305, (5RS,6RS)-5-[(3-Fluoroazetidin-1-yl)carbonyl]-6-(trifluoromethyl)-2-{[6-(trifluoromethyl)pyridin-3-yl]methyl}-5,6,7,8-tetrahydro[1,2,4]triazolo[4,3-a]pyridin-3(2H)-one] reads 14 nM; that for `O=C(C1C(C(F)(F)F)CCc2nn(Cc3ncc(Cl)cc3Cl)c(=O)n21)N1CC(F)C1` (single isomer, unassigned) [Example 307, (5RS,6RS)-2-[(3,5-Dichloropyridin-2-yl)methyl]-5-[(3-fluoroazetidin-1-yl)carbonyl]-6-(trifluoromethyl)-5,6,7,8-tetrahydro[1,2,4]triazolo[4,3-a]pyridin-3(2H)-one], 98.5 nM.

Consider `O=C(C1C(C(F)(F)F)CCc2nn(Cc3ncc(Cl)cc3F)c(=O)n21)N1CC(F)C1` (single isomer, unassigned) [Example 309, (5RS,6RS)-2-[(5-Chloro-3-fluoropyridin-2-yl)methyl]-5-[(3-fluoroazetidin-1-yl)carbonyl]-6-(trifluoromethyl)-5,6,7,8-tetrahydro[1,2,4]triazolo[4,3-a]pyridin-3(2H)-one], for which the IC50 came out at 64 nM. The result for `O=C(C1C(C(F)(F)F)CCc2nn(Cc3ccc(Cl)cn3)c(=O)n21)N1CC(F)C1` (single isomer, unassigned) [Example 311, (5RS,6RS)-2-[(5-Chloropyridin-2-yl)methyl]-5-[(3-fluoroazetidin-1-yl)carbonyl]-6-(trifluoromethyl)-5,6,7,8-tetrahydro[1,2,4]triazolo[4,3-a]pyridin-3(2H)-one] reads 30 nM; that for `O=C(C1CC(C(F)(F)F)Cc2nn(Cc3ccc(C(F)(F)F)nc3)c(=O)n21)N1CCC(F)(F)C1` (single isomer, unassigned) [Example 313, (5RS,7RS)-5-[(3,3-Difluoropyrrolidin-1-yl)carbonyl]-7-(trifluoromethyl)-2-{[6-(trifluoromethyl)pyridin-3-yl]methyl}-5,6,7,8-tetrahydro[1,2,4]triazolo[4,3-a]pyridin-3(2H)-one], 4 nM; that for `O=C(C1CC(C(F)(F)F)Cc2nn(Cc3ccc(Cl)cn3)c(=O)n21)N1CC[C@H](F)C1` (single isomer, unassigned) [Example 315], 1.4 nM.

For `O=C(C1CC(C(F)(F)F)Cc2nn(Cc3cncc(Cl)c3)c(=O)n21)N1CC[C@H](F)C1` (single isomer, unassigned) [Example 317], the IC50 worked out at 0.41 nM.

For `O=C(C1CC(C(F)(F)F)Cc2nn(Cc3cncc(Cl)c3)c(=O)n21)N1CC[C@H](F)C1` (single isomer, unassigned) [Example 318], the IC50 amounted to 518 nM.

Regarding `CC1Cc2nn(Cc3ccc(C(F)(F)F)nc3)c(=O)n2C(C(=O)N2C[C@@H](F)[C@@H](F)C2)C1` (single isomer, unassigned) [Example 337], the IC50 is 7.5 nM. The result for `CC1Cc2nn(Cc3ccc(C(F)(F)F)nc3)c(=O)n2C(C(=O)N2C[C@@H](F)[C@@H](F)C2)C1` (single isomer, unassigned) [Example 338] reads 1.5 nM. The result for `O=C([C@@H]1CCCc2nn(Cc3ccc(Cl)nc3)c(=O)n21)N1CC(F)C(F)C1` (single isomer, unassigned) [Example 551] reads 480 nM; that for `O=C([C@@H]1CCCc2nn(Cc3ccc(Cl)nc3)c(=O)n21)N1CC(F)C(F)C1` (single isomer, unassigned) [Example 552], 6.4 nM; that for `O=C([C@@H]1CCCc2nn(Cc3ccc(C(F)(F)F)nc3)c(=O)n21)N1CC(F)C(F)C1` (single isomer, unassigned) [Example 553], 575 nM. The result for `O=C([C@@H]1CCCc2nn(Cc3ccc(C(F)(F)F)nc3)c(=O)n21)N1CC(F)C(F)C1` (single isomer, unassigned) [Example 554] reads 10 nM. As to `O=C(C1CC(C(F)(F)F)Cc2nn(Cc3ncc(C(F)(F)F)cc3Cl)c(=O)n21)N1CC[C@H](F)C1` (single isomer, unassigned) [Example 563], the IC50 amounted to 0.33 nM. Take `O=C(C1CC(C(F)(F)F)Cc2nn(Cc3ncc(C(F)(F)F)cc3Cl)c(=O)n21)N1CCC(F)(F)C1` (single isomer, unassigned) [Example 565, (5RS,7RS)-2-{[3-Chloro-5-(trifluoromethyl)pyridin-2-yl]methyl}-5-[(3,3-difluoropyrrolidin-1-yl)carbonyl]-7-(trifluoromethyl)-5,6,7,8-tetrahydro[1,2,4]triazolo[4,3-a]pyridin-3(2H)-one]: the IC50 came to 1.5 nM.

Turning to `O=C(C1CC(C(F)(F)F)Cc2nn(Cc3ccc(Cl)cn3)c(=O)n21)N1CCC(F)(F)C1` (single isomer, unassigned) [Example 567, (5RS,7RS)-2-[(5-Chloropyridin-2-yl)methyl]-5-[(3,3-difluoropyrrolidin-1-yl)carbonyl]-7-(trifluoromethyl)-5,6,7,8-tetrahydro[1,2,4]triazolo[4,3-a]pyridin-3(2H)-one], the IC50 amounted to 2.7 nM. The result for `O=C(C1CC(C(F)(F)F)Cc2nn(Cc3ncc(F)cc3F)c(=O)n21)N1CC[C@H](F)C1` (single isomer, unassigned) [Example 570] reads 0.57 nM; that for `O=C(C1CC(C(F)(F)F)Cc2nn(Cc3ncc(F)cc3Cl)c(=O)n21)N1CC[C@H](F)C1` (single isomer, unassigned) [Example 572], 1.4 nM; that for `O=C(C1CC(C(F)(F)F)Cc2nn(Cc3ncc(F)cc3F)c(=O)n21)N1CCC(F)(F)C1` (single isomer, unassigned) [Example 574, (5RS,7RS)-2-[(3,5-Difluoropyridin-2-yl)methyl]-5-[(3,3-difluoropyrrolidin-1-yl)carbonyl]-7-(trifluoromethyl)-5,6,7,8-tetrahydro[1,2,4]triazolo[4,3-a]pyridin-3(2H)-one], 5.2 nM.

Turning to `O=C(C1CC(C(F)(F)F)Cc2nn(Cc3ncc(F)cc3Cl)c(=O)n21)N1CCC(F)(F)C1` (single isomer, unassigned) [Example 576, (5RS,7RS)-2-[(3-Chloro-5-fluoropyridin-2-yl)methyl]-5-[(3,3-difluoropyrrolidin-1-yl)carbonyl]-7-(trifluoromethyl)-5,6,7,8-tetrahydro[1,2,4]triazolo[4,3-a]pyridin-3(2H)-one], the IC50 is 8.7 nM. To `O=C(C1CC(C(F)(F)F)Cc2nn(Cc3ccc(C(F)(F)F)nc3)c(=O)n21)N1CC(F)C(F)C1` (single isomer, unassigned) [Example 583] belongs 970 nM; to `O=C(C1CC(C(F)(F)F)Cc2nn(Cc3ccc(C(F)(F)F)nc3)c(=O)n21)N1CC(F)C(F)C1` (single isomer, unassigned) [Example 584], 50 nM; to `Cc1ccc(Cn2nc3n(c2=O)[C@H](C(=O)N2CCCC2)CCC3)cc1` [Example 26, (5S)-2-(4-Methylbenzyl)-5-(pyrrolidin-1-ylcarbonyl)-5,6,7,8-tetrahydro[1,2,4]triazolo[4,3-a]pyridin-3(2H)-one], 0.73 nM. The result for `O=C([C@@H]1CCc2nn(Cc3ccc(C(F)(F)F)nc3)c(=O)n21)N1CCCC1` [Example 50, (5S)-5-(Pyrrolidin-1-ylcarbonyl)-2-{[6-(trifluoromethyl)pyridin-3-yl]methyl}-2,5,6,7-tetrahydro-3H-pyrrolo[2,1-c][1,2,4]triazol-3-one] reads 12 nM. To `O=C([C@@H]1CCc2nn(Cc3ccc(F)c(Cl)c3)c(=O)n21)N1CCCC1` [Example 51, (5S)-2-(3-Chloro-4-fluorobenzyl)-5-(pyrrolidin-1-ylcarbonyl)-2,5,6,7-tetrahydro-3H-pyrrolo[2,1-c][1,2,4]triazol-3-one] belongs 0.89 nM; to `O=C([C@@H]1CCc2nn(Cc3ccc(Cl)nc3)c(=O)n21)N1CCCC1` [Example 52, (5S)-2-[(6-Chloropyridin-3-yl)methyl]-5-(pyrrolidin-1-ylcarbonyl)-2,5,6,7-tetrahydro-3H-pyrrolo[2,1-c][1,2,4]triazol-3-one], 4.6 nM; to `O=C([C@@H]1CCc2nn(Cc3cccc(C(F)(F)F)c3)c(=O)n21)N1CCCC1` [Example 55, (5S)-5-(Pyrrolidin-1-ylcarbonyl)-2-[3-(trifluoromethyl)benzyl]-2,5,6,7-tetrahydro-3H-pyrrolo[2,1-c][1,2,4]triazol-3-one], 1.4 nM.
